# Like-named read-outs stand apart in the source and are kept apart here.
# Biological target: T1, F508delCFTR (Homo sapiens, UniProt P13569, DEL508-508)
# T1 construct: expressed in transfected cells; host or cells: CFBE41o- human lung-derived epithelial cells (CFBE4lo-F508delCFTR-HRP), doxycycline-inducible
# Assay: Cell Surface Expression-Horse Radish Peroxidase (CSE-HRP) Assay;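 as to Maximum % activity (with co-corrector): co-corrector and positive control are both the same reference corrector at 2 µM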;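 as to Maximum % activity (without co-corrector): percent of the 2 µM on-plate positive control corrector response above DMSO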
# Type: cell-based
# Settings: for Maximum % activity (with co-corrector) / Emax: maximum at any tested concentration, normalized to on-plate positive control; for Emax: read-out: Maximum % activity (without co-corrector)
# [1] = test compound without co-corrector, read-out: EC50 (without co-corrector)
# [2] = with co-corrector (2 μM of 3-[(2R,4R)-4-({[1-(2,2-difluoro-1,3-benzodioxol-5-yl)cyclopropyl]carbonyl}amino)-7-methoxy-3,4-dihydro-2H-chromen-2-yl]benzoic acid), read-out: EC50 (with co-corrector)
# [3] = CSE-HRP, test compound without co-corrector, read-out: EC50 (without co-corrector)
# [4] = CSE-HRP, with co-corrector (2 μM of 3-[(2R,4R)-4-({[1-(2,2-difluoro-1,3-benzodioxol-5-yl)cyclopropyl]carbonyl}amino)-7-methoxy-3,4-dihydro-2H-chromen-2-yl]benzoic acid), read-out: EC50 (with co-corrector)
# [5] = CSE-HRP, with co-corrector (2 μM)
# [6] = test compound without co-corrector
# [7] = with co-corrector (2 μM of 3-[(2R,4R)-4-({[1-(2,2-difluoro-1,3-benzodioxol-5-yl)cyclopropyl]carbonyl}amino)-7-methoxy-3,4-dihydro-2H-chromen-2-yl]benzoic acid)
# T1 sequence (P13569 with tags, fused parts or gaps DEL508-508): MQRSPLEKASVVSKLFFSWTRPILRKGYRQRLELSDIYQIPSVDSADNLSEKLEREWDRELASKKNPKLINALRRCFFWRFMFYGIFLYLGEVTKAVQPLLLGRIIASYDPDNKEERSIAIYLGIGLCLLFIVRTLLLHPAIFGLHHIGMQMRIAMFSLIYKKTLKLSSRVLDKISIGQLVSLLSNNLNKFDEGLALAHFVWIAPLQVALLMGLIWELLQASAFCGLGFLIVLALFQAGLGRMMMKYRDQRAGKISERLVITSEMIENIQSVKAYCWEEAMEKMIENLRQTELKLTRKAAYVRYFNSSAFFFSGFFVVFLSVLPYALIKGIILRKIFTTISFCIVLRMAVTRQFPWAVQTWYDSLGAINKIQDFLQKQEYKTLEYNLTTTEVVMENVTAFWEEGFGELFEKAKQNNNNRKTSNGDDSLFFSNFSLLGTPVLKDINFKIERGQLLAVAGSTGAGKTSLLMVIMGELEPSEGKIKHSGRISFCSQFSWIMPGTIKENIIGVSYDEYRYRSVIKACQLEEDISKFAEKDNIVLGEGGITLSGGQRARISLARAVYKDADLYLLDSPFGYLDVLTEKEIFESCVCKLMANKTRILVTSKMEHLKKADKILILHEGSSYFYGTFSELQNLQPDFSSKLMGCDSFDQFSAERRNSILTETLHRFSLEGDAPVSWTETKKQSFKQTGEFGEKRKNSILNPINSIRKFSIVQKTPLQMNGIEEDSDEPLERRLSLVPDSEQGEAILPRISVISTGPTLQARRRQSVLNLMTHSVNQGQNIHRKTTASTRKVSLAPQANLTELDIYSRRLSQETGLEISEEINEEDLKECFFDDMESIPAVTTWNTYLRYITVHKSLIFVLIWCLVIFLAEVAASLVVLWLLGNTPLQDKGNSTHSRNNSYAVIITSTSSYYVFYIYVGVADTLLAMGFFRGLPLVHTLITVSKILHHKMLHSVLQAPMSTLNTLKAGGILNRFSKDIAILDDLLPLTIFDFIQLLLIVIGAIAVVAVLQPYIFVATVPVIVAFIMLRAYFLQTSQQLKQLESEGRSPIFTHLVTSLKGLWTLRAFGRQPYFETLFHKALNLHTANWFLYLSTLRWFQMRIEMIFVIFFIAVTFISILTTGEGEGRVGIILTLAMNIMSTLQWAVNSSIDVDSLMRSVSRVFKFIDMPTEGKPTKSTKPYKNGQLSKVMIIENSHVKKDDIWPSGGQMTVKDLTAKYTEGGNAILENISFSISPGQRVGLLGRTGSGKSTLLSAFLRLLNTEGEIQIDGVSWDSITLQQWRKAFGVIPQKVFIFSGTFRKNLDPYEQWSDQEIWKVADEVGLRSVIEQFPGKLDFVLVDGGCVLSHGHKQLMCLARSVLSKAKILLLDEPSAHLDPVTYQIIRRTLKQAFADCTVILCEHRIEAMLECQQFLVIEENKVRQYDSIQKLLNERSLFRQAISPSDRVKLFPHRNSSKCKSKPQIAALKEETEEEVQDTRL
SMILES,EC50 [1] [nM],EC50 [2] [nM],Maximum % activity (with co-corrector) (with co-corrector (2 μM)),Emax (without co-corrector) [%],EC50 [3] [nM],EC50 [4] [nM],Maximum % activity (with co-corrector) [5],"Emax (CSE-HRP, without co-corrector) [%]",Emax [6] [%],Maximum % activity (with co-corrector) [7],"Maximum % activity (with co-corrector) (with co-corrector (2 μM of 3-[(2R,4R)-4-({[1-(2,2-difluoro-1,3-benzodioxol-5-yl)cyclopropyl]carbonyl}amino)-7-methoxy-3,4-dihydro-2H-chromen-2-yl]benzoic acid), 2 µM)"
"COc1ncc(C(F)(F)F)cc1N[C@H]1[C@H](C(C)(C)C)[C@@H](C(=O)O)N(C(=O)C2CCCCC2)[C@H]1c1ccccc1 [Example 114, (2S,3S,4S,5S)-3-tert-butyl-1-(cyclohexanecarbonyl)-4-{[2-methoxy-5-(trifluoromethyl)pyridin-3-yl]amino}-5-phenylpyrrolidine-2-carboxylic acid]",< 1000,< 1000,+++ (≥350),< 100,–,–,–,–,–,–,–
COc1ccc(C(C)(C)C)cc1CN[C@H]1[C@H](C(C)(C)C)[C@@H](C(=O)O)N(C(=O)CC2=CCCC2)[C@H]1c1ccccc1 [II-234],–,–,–,–,1000 to 10000,1000 to 10000,+++ (≥350),> 200,–,–,–
COc1cc2c(cc1CN[C@H]1[C@H](C(C)(C)C)[C@@H](C(=O)O)N(C(=O)OC(C)C)[C@H]1c1cccnc1N(C)C)CCCC2 [II-565],1000 to 10000,1000 to 10000,–,–,–,–,–,–,100 to 200,+++ (≥350),–
CC(C)(C)[C@H]1[C@H](Nc2nc(Cl)c(F)cc2C#N)[C@H](c2ccccc2)N(C(=O)C2CCCCC2)[C@@H]1C(=O)O [III-145],1000 to 10000,1000 to 10000,++ (≥150 and <350),–,–,–,–,–,< 100,–,–
CC(C)(C)[C@@H]1[C@@H](NCc2cc(C(F)(F)F)cnc2Cl)[C@@H](c2ccccc2)N(C(=O)C2CCCCC2)[C@H]1C(=O)O (racemic) [II-15],–,–,–,–,< 1000,< 1000,+++ (≥350),< 100,–,–,–
COc1cc(C(F)(F)F)ccc1CN[C@H]1[C@H](C(C)(C)C)[C@@H](C(=O)O)N(C(=O)CC(C)C)[C@H]1c1ccccc1 [II-558],1000 to 10000,1000 to 10000,–,–,–,–,–,–,100 to 200,+++ (≥350),–
COc1ccc(C(C)(C)C)cc1CN[C@H]1[C@H](C(C)(C)C)[C@@H](C(=O)O)N(C(=O)[C@H](C)[C@@H]2CCCCO2)[C@H]1c1ccccc1 (relative stereo) [II-454],1000 to 10000,1000 to 10000,–,–,–,–,–,–,100 to 200,+++ (≥350),–
CC(C)(C)[C@H]1[C@H](NCc2ccc3c(c2)OC(F)(F)O3)[C@H](c2ccccc2)N(C(=O)C2CCCCC2)[C@@H]1C(=O)O [III-132],> 10000,1000 to 10000,++ (≥150 and <350),–,–,–,–,–,< 100,–,–
CC(C)(C)[C@H]1[C@H](NCc2ccc(F)cc2OCC2CC2)[C@H](c2ccccc2)N(C(=O)C2CCCCC2)[C@@H]1C(=O)O [Example I-50],1000 to 10000,1000 to 10000,++ (≥150 and <350),< 100,–,–,–,–,–,–,–
COc1ccc(C(C)(C)C)cc1CN[C@H]1[C@H](C(C)(C)C)[C@@H](C(=O)O)N(C(=O)c2cnn3ccccc23)[C@H]1c1ccccc1 [Example I-143],1000 to 10000,1000 to 10000,+++ (≥350),< 100,–,–,–,–,–,–,–
COc1ncc(Br)cc1CN[C@H]1[C@H](C(C)(C)C)[C@@H](C(=O)O)N(C(=O)[C@@H]2CCCCO2)[C@H]1c1ccccc1C [Example I-287],–,–,–,–,1000 to 10000,< 1000,+++ (≥350),> 200,–,–,–
COc1ccc(C(C)(C)C)cc1CN[C@H]1[C@H](C(C)(C)C)[C@@H](C(=O)O)N(C(=O)CC2CCCC2(F)F)[C@H]1c1ccccc1 (some centres unmarked) [II-219],–,–,–,–,1000 to 10000,< 1000,+++ (≥350),> 200,–,–,–
COc1ncc(C(F)(F)F)cc1CN[C@@H]1[C@@H](C(C)(C)C)[C@H](C(=O)O)N(C(=O)C2CCCCC2)[C@@H]1c1cccnc1N(C)C (racemic) [II-52],–,–,–,–,1000 to 10000,1000 to 10000,+++ (≥350),100 to 200,–,–,–
"COc1ccc(C(C)(C)C)cc1CN[C@H]1[C@H](C(C)(C)C)[C@@H](C(=O)O)N(C(=O)C2CCc3ccc(F)cc3O2)[C@H]1c1cccnc1N(C)C (single isomer, unassigned) [II-452]",1000 to 10000,1000 to 10000,–,–,–,–,–,–,100 to 200,–,+++ (≥350)
COc1ccc(C(C)(C)C)cc1CN[C@H]1[C@H](C(C)(C)C)[C@@H](C(=O)O)N(C(=O)c2cnn(-c3ccc(F)cc3F)c2C)[C@H]1c1ccccc1 [II-356],1000 to 10000,< 1000,–,–,–,–,–,–,> 200,+++ (≥350),–
COc1ccc(C(F)(F)F)cc1CN[C@@H]1[C@@H](C(C)(C)C)[C@H](C(=O)O)N(C(=O)[C@H]2CCCO[C@H]2C)[C@@H]1c1ccccc1 (racemic) [II-35],–,–,–,–,1000 to 10000,1000 to 10000,+++ (≥350),> 200,–,–,–
COc1ccc(C(F)(F)F)cc1CN[C@@H]1[C@@H](C(C)(C)C)[C@H](C(=O)O)N(C(=O)C2CCCCO2)[C@@H]1c1ccccc1N(C)C (mixture of isomers) [II-20],–,–,–,–,1000 to 10000,1000 to 10000,+++ (≥350),> 200,–,–,–
COc1cc2c(cc1CN[C@H]1[C@H](C(C)(C)C)[C@@H](C(=O)O)N(C(=O)[C@@H]3CCCC(F)(F)C3)[C@H]1c1ccccc1)CCC2 [Example I-190],1000 to 10000,< 1000,+++ (≥350),> 200,–,–,–,–,–,–,–
COc1ccc(C(C)(C)C)cc1CN[C@H]1[C@H](C(C)(C)C)[C@@H](C(=O)O)N(C(=O)CC2CCCOC2)[C@H]1c1ccccc1 (some centres unmarked) [II-179],–,–,–,–,1000 to 10000,1000 to 10000,+++ (≥350),> 200,–,–,–
COc1ccc(C(C)C)cc1CN[C@H]1[C@H](C(C)(C)C)[C@@H](C(=O)O)N(C(=O)C2CCCCC2)[C@H]1c1ccc(F)cc1 [Example I-109],1000 to 10000,< 1000,+++ (≥350),> 200,–,–,–,–,–,–,–
CC(C)(C)[C@@H]1[C@@H](NCc2cc(S(C)(=O)=O)ccc2O)[C@@H](c2ccccc2)N(C(=O)C2CCCCC2)[C@H]1C(=O)O (racemic) [III-79],> 10000,> 10000,–,–,–,–,–,–,< 100,+ (<150),–
COc1cccc(-c2cc(CN[C@H]3[C@H](C(C)(C)C)[C@@H](C(=O)O)N(C(=O)C4CCCCC4)[C@H]3c3ccccc3)c(OC)cn2)c1 [II-418],1000 to 10000,1000 to 10000,–,–,–,–,–,–,< 100,+++ (≥350),–
COc1ccc(C(C)(C)C)cc1CN[C@H]1[C@H](C(C)(C)C)[C@@H](C(=O)O)N(C(=O)Cc2ccccc2F)[C@H]1c1ccccc1 [II-206],–,–,–,–,< 1000,< 1000,+++ (≥350),> 200,–,–,–
COc1nc(C(C)(C)C)ccc1CN[C@H]1[C@H](C(C)(C)C)[C@@H](C(=O)O)N(C(=O)[C@H](OC)c2ccccc2)[C@H]1c1ccccc1 [II-433],< 1000,< 1000,–,–,–,–,–,–,100 to 200,+++ (≥350),–
CCc1c(C(=O)N2[C@H](C(=O)O)[C@@H](C(C)(C)C)[C@H](NCc3cc(C(C)(C)C)ccc3OC)[C@@H]2c2ccccc2)cnn1-c1ccc(OC)nn1 [Example I-144],1000 to 10000,1000 to 10000,+++ (≥350),100 to 200,–,–,–,–,–,–,–
COc1ccc(C(C)(C)C)cc1CN[C@H]1[C@H](C(C)(C)C)[C@@H](C(=O)O)N(C(=O)[C@@H]2CCCO2)[C@H]1c1ccccc1Br [Example I-294],–,–,–,–,1000 to 10000,< 1000,+++ (≥350),> 200,–,–,–

# Reference: US20180099931A1 (AbbVie S.à.r.l., priority 2016, published 2018)
